Experimental data as given in patent US20070071782A1, “2-Cyanobenzenesulfonamides for combating animal pests” (priority 2003, published 2007).

Assays:
Format in all cases: in vivo
[1] = test system: Argentine ants, Linepithema humile; experiment: whole plant or invertebrate; conditions: for mortality at 1 % strength: Linepithema humile, 144 h, read-out: Mean cumulative % mortality 6 days after treatment
Protocol: • a) The tests were conducted in petri dishes. Ants were given a water source and then were starved of a food source for 24 hours. Baits were prepared with 20% honey/water solution. A solution of the active ingredient in acetone was added to reach a concentration of the active ingredient of 1% by weight (w/w). 0.2 ml of the active ingredient containing honey/water solution, placed in a cap, was added to each dish. The dishes were covered and maintained at a water temperature of 22° C. […]
b) The tests were conducted as in example a). The following compounds I and II according to EP 33984 were used as comparative examples.

[2] = test system: Green Peach Aphid (Myzus persicae); experiment: Green Peach Aphid leaf-dip test on pepper plants; conditions: foliar, 120 h, after 5 days, read-out: mortality in comparison with untreated controls
Protocol: (§1) The active compounds were formulated in 50:50 acetone:water and 100 ppm Kinetic® surfactant.
Pepper plants in the 2nd leaf-pair stage (variety ‘California Wonder’) were infested with approximately 40 laboratory-reared aphids by placing infested leaf sections on top of the test plants. The leaf sections were removed after 24 hr. The leaves of the intact plants were dipped into gradient solutions of the test compound and allowed to dry. Test plants were maintained under fluorescent light (24 hour photoperiod) at about 25° C. and 20-40% relative humidity. Aphid mortality on the treated plants, relative to mortality on check plants, was determined after 5 days.

[3] = test system: Cotton Aphid (Aphis gossypii); experiment: Cotton Aphid cotyledon-dip test on cotton plants; conditions: 120 h, after 5 days, read-out: mortality in comparison with untreated controls
From the text: as §1
Cotton plants in the cotyledon stage (variety ‘Delta Pine’, one plant per pot) were infested by placing a heavily infested leaf from the main colony on top of each cotyledons. The aphids were allowed to transfer to the host plant overnight, and the leaf used to transfer the aphids were removed. The cotyledons were dipped in the test solution and allowed to dry. After 5 days, mortality counts were made.

SMILES	mortality compared to untreated controls ([1]; in vivo) [%]	mortality at 300 ppm [2] [%]	further results
N#Cc1c(OC(F)F)cccc1S(N)(=O)=O [Compound 78]	100		
CNS(=O)(=O)c1cccc(OC)c1C#N [Compound 2, Methyl-(2-cyano-3-methoxy-phenyl)sulfonamide]		> 85	mortality at 300 ppm [3]: > 85%
CCNS(=O)(=O)c1cccc(Cl)c1C#N [Comparative Example II, reference compound]			mortality at 1 % strength [1]: 35.6%
C#CCNS(=O)(=O)c1cccc(OC(F)F)c1C#N [Compound 79]	100		
CCN(CC)S(=O)(=O)c1cccc(Cl)c1C#N [Comparative Example I, reference compound]			mortality at 1 % strength [1]: 35.6%
CCNS(=O)(=O)c1cccc(OC(F)F)c1C#N [Compound 66]	100		Mean cumulative % mortality 6 days after treatment ([1]; in vivo): 100.0%
CCCNS(=O)(=O)c1cccc(C)c1C#N [Compound 1, n-Propyl-(2-cyano-3-methyl-phenyl)sulfonamide]		> 85	
CCNS(=O)(=O)c1ccc(Cl)c(C)c1C#N [Compound 3, Ethyl-(4-chloro-2-cyano-3-methyl-phenyl)sulfonamide]		> 85	mortality at 300 ppm [3]: > 85%
